US20070129367A1, “Pyridine derivatives as cb2 receptor modulators” (priority 2002, published 2007)
Like-named read-outs stand apart in the source and are kept apart here.

Molecular target: T1, human cannabinoid CB2 receptor (Homo sapiens, UniProt P34972)
T1 construct: expressed in transfected cells; host or cells: Saccharomyces cerevisiae strain MMY23 (cassette integrated at the ura3 locus, GPD promoter)
Test: Cannabinoid CB2 receptor agonist activity in yeast (Saccharomyces cerevisiae) cells expressing the receptor, FDGlu fluorescence readout;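 on Emax: percent of the maximal response of the reference agonist HU210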
Type: cell-based
Conditions: for Emax: read-out: efficacy (Emax) at the cloned human cannabinoid CB2 receptor
Method: Determination of Cannabinoid CB2 Receptor Agonist Activity
The cannabinoid CB2 receptor agonist activity of the compounds of formula (I) was determined in accordance with the following experimental method.
Yeast (Saccharomyces cerevisiae) cells expressing the human cannabinoid CB2 receptor were generated by integration of an expression cassette into the ura3 chromosomal locus of yeast strain MMY23. This cassette consisted of DNA sequence encoding the human CB2 receptor flanked by the yeast GPD promoter to the 5′ end of CB2 and a yeast transcriptional terminator sequence to the 3′ end of CB2. MMY23 expresses a yeast/mammalian chimeric G-protein alpha subunit in which the C-terminal 5 amino acids of Gpa1 are replaced with the C-terminal 5 amino acids of human Gαi3 (as described in Brown et aL (2000), Yeast 16:11-22). Cells were grown at 30° C. in liquid Synthetic Complete (SC) yeast media (Guthrie and Fink (1991), Methods in Enzymology, Vol. 194) lacking uracil, tryptophan, adenine and leucine to late logarithmic phase (approximately 6 OD600/ml).
Agonists were prepared as 10 mM stocks in DMSO. […] Agonist solutions in DMSO (1% final assay volume) were transferred into black, clear bottom, microtitre plates from NUNC (96- or 384-well). […] This mixture (50 ul per well for 384-well plates, 200 ul per well for 96-well plates) was added to agonist in the assay plates (Multidrop 384, Labsystems). After incubation at 30° C. for 24 hours, fluorescence resulting from degradation of FDGlu to fluorescein due to exoglucanase, an endogenous yeast enzyme produced during agonist-stimulated cell growth, was determined using a Spectrofluor microtitre plate reader (Tecan; excitation wavelength: 485 nm; emission wavelength: 535 nm). Fluorescence was plotted against compound concentration and iteratively curve fitted using a four parameter fit to generate a concentration effect value. […] Equieffective molar ratio (EMR) values were calculated from the equation EMR=EC50 [compound X]/EC50 [HU210]
Where EC50 [compound X] is the EC50 of compound X and EC50 [HU210] is the EC50 of HU210.

[1] = agonist activity, yeast cells, 24 hours at 30° C., read-out: EC50 at the cloned human cannabinoid CB2 receptor

T1 sequence (P34972 whole entry): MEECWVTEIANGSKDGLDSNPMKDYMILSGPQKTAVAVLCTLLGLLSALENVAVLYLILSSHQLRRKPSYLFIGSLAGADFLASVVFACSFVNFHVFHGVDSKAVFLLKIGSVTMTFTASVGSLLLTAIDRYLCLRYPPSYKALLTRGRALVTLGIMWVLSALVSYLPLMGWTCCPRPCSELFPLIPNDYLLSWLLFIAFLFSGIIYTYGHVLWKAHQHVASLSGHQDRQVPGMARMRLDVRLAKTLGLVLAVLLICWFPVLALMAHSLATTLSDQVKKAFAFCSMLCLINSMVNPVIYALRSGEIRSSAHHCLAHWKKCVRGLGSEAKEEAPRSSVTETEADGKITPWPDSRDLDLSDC

EC50 [1] [nM] | SMILES | EC50 [nM] | Emax [%]
– | O=C(NCc1ccncc1)c1cnc(Nc2cccc(Cl)c2)cc1C(F)(F)F [Example 1, 2-(3-Chlorophenylamino)-4-trifluoromethylpyridine-5-carboxylic acid (pyridin-4-ylmethyl) amide] | < 300 | > 50
< 300 | CC(C)c1cc(Nc2ccc(Br)c(F)c2)ncc1C(=O)NCc1ccc(F)cc1 [Example 24, 6-(4-Bromo-3-fluoro-fluoro-benzyl)-4-phenylamino)-N-(4-isopropyl-nicotinamide] | – | –
< 300 | Cc1cc(C#N)ccc1Nc1cc(C(C)C)c(C(=O)NCc2ccc(F)cc2)cn1 [Example 73, 6-(4-Cyano-2-methyl-phenylamino)-N-(4-fluoro-benzyl)-4-isopropyl-nicotinamide] | – | –
– | CC(C)c1cc(Nc2ccc(Br)cc2Cl)ncc1C(=O)NCc1ccc(F)cc1 [Example 21, 6-(4-Bromo-2-chloro-phenylamino)-N-(4-fluoro-benzyl)-4-isopropyl-nicotinamide] | < 300 | > 50
– | CC(C)c1cc(Nc2cccc(Cl)c2)ncc1C(=O)NCc1ccc(C#N)cc1 [Example 5, 6-(3-Chloro-phenylamino)-N-(4-cyano-benzyl)-4-isopropyl-nicotinamide] | 300 to 1000 | > 50
< 300 | CC(C)c1cc(Nc2cc(Cl)ccc2F)ncc1C(=O)NCc1ccc(F)cc1 [Example 72, 6-(5-Chloro-2-fluoro-phenylamino)-N-(4-fluoro-benzyl)-4-isopropyl-nicotinamide] | – | –
– | O=C(NCc1ccc(F)cc1)c1cnc(Nc2cccc(Br)c2)cc1C(F)(F)F [Example 46, N-(4-Fluoro-benzyl)-6-(3-bromo-phenylamino)-4-trifluoromethyl-nicotinamide] | – | > 50
– | CC(C)c1cc(Nc2cccc(C(F)(F)F)c2)ncc1C(=O)NCc1ccc(F)cc1 [Example 14, N-(4-Fluoro-benzyl)-4-isopropyl-6-(3-trifluoromethyl-phenylamino)-nicotinamide] | 300 to 1000 | > 50
– | CC(C)c1cc(Nc2ccc(Cl)c(Cl)c2)ncc1C(=O)NCc1ccc(F)cc1 [Example 32, 6-(3,4-Dichloro-phenylamino)-N-(4-fluoro-benzyl)-4-isopropyl-nicotinamide] | 300 to 1000 | > 50
– | O=C(NCc1ccc(F)cc1)c1cnc(Nc2ccc(Cl)c(Cl)c2)cc1C(F)(F)F [Example 55, N-(4-Fluoro-benzyl)-6-(3,4-dichloro-phenylamino)-4-trifluoroinethyl-nicotinainide] | < 300 | > 50
– | COc1cccc(Nc2cc(C(C)C)c(C(=O)NCc3ccc(F)cc3)cn2)c1 [Example 30] | 300 to 1000 | > 50
– | O=C(NCc1ccccc1)c1cnc(Nc2cccc(Cl)c2)cc1C(F)(F)F [Example 2, 2-(3-Chlorophenylamino)-4-trifluoromethylpyridine-5-carboxylic acid benzylamide] | < 300 | > 50
– | O=C(NCc1ccnc(F)c1)c1cnc(Nc2cc(Cl)cc(Cl)c2)cc1C(F)(F)F [Example 54, N-(2-Fluoro-pyridin-4-ylmethyl)-6-(3,5-dichloro-phenylamino)-4-trifluoromethyl-nicotinamide] | < 300 | > 50
– | CC(C)c1cc(Nc2cccc(Cl)c2)ncc1C(=O)NCc1ccc(F)c(F)c1 [Example 7, 6-(3-Chloro-phenylamino)-N-(3,4-difluoro-benzyl)-4-isopropyl-nicotinamide] | 300 to 1000 | > 50
< 300 | CC(C)c1cc(Nc2ccc(F)c(Cl)c2)ncc1C(=O)NCc1ccc(F)cc1 [Example 15, 6-(3-Chloro-4-fluoro-phenylamino)-N-(4-fluoro-benzyl)-4-isopropyl-nicotinamide] | – | –
– | O=C(NCc1ccnc(F)c1)c1cnc(Nc2ccc(Cl)cc2Cl)cc1C(F)(F)F [Example 51, N-(2-Fluoro-pyridin-4-ylmethyl)-6-(2,4-dichloro-phenylamino)-4-trifluoromethyl-nicotinamide] | < 300 | > 50
< 300 | CC(C)c1cc(Nc2cccc(C#N)c2)ncc1C(=O)NCc1ccc(F)cc1 [Example 19, 6-(3-Cyano-phenylamino)-N-(4-fluoro-benzyl)-4-isopropyl-nicotinamide] | – | –
< 300 | CC(C)c1cc(Nc2ccc(C#N)cc2)ncc1C(=O)NCc1ccc(F)cc1 [Example 18, 6-(4-Cyano-phenylamino)-N-(4-fluoro-benzyl)-4-isopropyl-nicotinamide] | – | –

EC50 [1] [nM] | SMILES | EC50 [nM] | Emax [%]
300 to 1000 | CC(C)c1cc(Nc2ccc(C(F)(F)F)c(F)c2)ncc1C(=O)NCc1ccc(F)cc1 [Example 76, N-(4-fluoro-benzyl)-6-(3-Fluoro-4-trifluormethyl-phenylamino)-4-isopropyl-nicotinamide] | – | –
– | COc1ccc(CNC(=O)c2cnc(Nc3cccc(Cl)c3)cc2C(C)C)cc1 [Example 6, 6-(3-Chloro-phenylamino)-4-isopropyl-N-(4-methoxy-benzyl)-nicotinamide] | 300 to 1000 | > 50
300 to 1000 | CC(C)c1cc(Nc2ccc(Br)cc2F)ncc1C(=O)NCc1ccc(F)cc1 [Example 31, 6-(4-Bromo-2-fluoro-phenylamino)-N-(4-fluoro-benzyl)-4-isopropyl-nicotinamide] | – | –
– | O=C(NCc1ccncc1)c1ccc(Nc2cccc(Cl)c2)nc1C(F)(F)F [Example 78, 6-(3-Chloro-phenylamino)-N-(pyridin-4-ylmethyl)-2-trifluoromethyl-nicotinamide] | < 300 | > 50
– | CC(C)c1cc(Nc2ccc(Cl)cc2Br)ncc1C(=O)NCc1ccc(F)cc1 [Example 70, 6-(2-Bromo-4-chloro-phenylamino)-N-(4-fluoro-benzyl)-4-isopropyl-nicotinamide] | < 300 | > 50
– | CC(C)c1cc(Nc2ccc(C#N)c(Cl)c2)ncc1C(=O)NCc1ccc(F)cc1 [Example 23, 6-(3-Chloro-4-cyano-phenylamino)-N-(4-fluoro-benzyl)-4-isopropyl-nicotinamide] | < 300 | > 50
– | O=C(NCc1ccc(F)cc1)c1cnc(Nc2ccc(Cl)cc2Cl)cc1C(F)(F)F [Example 52] | < 300 | > 50
– | O=C(NCc1ccnc(F)c1)c1cnc(Nc2cccc(Cl)c2)cc1C(F)(F)F [Example 45, N-(2-Fluoro-pyridin-4-ylmethyl)-6-(3-chloro-phenylamino)-4-trifluoromethyl-nicotinamide] | < 300 | > 50
– | CC(C)c1cc(Nc2cccc(Cl)c2)ncc1C(=O)NCc1ccc(F)cc1 [Example 3, 6-(3-Chlorophenylamino)-N-(4-fluorobenzyl)-4-isopropyl-nicotinamide] | – | > 50
300 to 1000 | CC(C)c1cc(Nc2cccc(Cl)c2)ncc1C(=O)NCc1ccc(C(N)=O)cc1 [Example 8, N-(4-Carbamoyl-benzyl)-6-(3-chloro-phenylamino)-4-isopropyl-nicotinamide] | – | –
– | O=C(NCc1ccc(F)cc1)c1cnc(Nc2cc(Cl)cc(Cl)c2)cc1C(F)(F)F [Example 53] | < 300 | > 50
– | O=C(NCc1ccnc(F)c1)c1cnc(Nc2cccc(Cl)c2Cl)cc1C(F)(F)F [Example 50, N-(2-Fluoro-pyridin-4-ylmethyl)-6-(2,3-dichloro-phenylamino)-4-trifluoromethyl-nicotinamide] | < 300 | > 50
– | Cc1cccc(Nc2cc(C(C)C)c(C(=O)NCc3ccc(F)cc3)cn2)c1C#N [Example 16, 6-(2-Cyano-3-methyl-phenylamino)-N-(4-fluoro-benzyl)-4-isopropyl-nicotinamide] | 300 to 1000 | > 50
– | Cc1c(Br)cccc1Nc1cc(C(C)C)c(C(=O)NCc2ccc(F)cc2)cn1 [Example 27, 6-(3-Bromo-2-methyl-phenylamino)-N-(4-fluoro-benzyl)-4-isopropyl-nicotinamide] | 300 to 1000 | > 50
– | CC(C)c1cc(Nc2cccc(F)c2)ncc1C(=O)NCc1ccc(F)cc1 [Example 17, N-(4-Fluoro-benzyl)-6-(3-fluoro-phenylamino)-4-isopropyl-nicotinamide] | < 300 | > 50
– | CC(C)c1cc(Nc2cccc(Cl)c2)ncc1C(=O)NCc1ccccc1 [Example 4, N-Benzyl-6-(3-chloro-phenylamino)-4-isopropyl-nicotinamide] | < 300 | > 50
– | CC(C)c1cc(Nc2ccc(Br)c(Cl)c2)ncc1C(=O)NCc1ccc(F)cc1 [Example 75, 6-(4-Bromo-3-chloro-phenylamino)-N-(4-fluoro-benzyl)-4-isopropyl-nicotinamide] | 300 to 1000 | > 50
